Reference: paper PMC10303271, “Synthesis and Receptor Binding Studies of α5 GABAAR Selective Novel Imidazodiazepines Targeted for Psychiatric and Cognitive Disorders” (Molecules, 2023)

Assays:
hERG channels = target: T1, hERG channels (Homo sapiens, UniProt Q12809); assay: PDSP radioligand binding at hERG; conditions: primary binding, 10,000 nM; last figure of the line = mean of the 4 before it
T1 construct: purchased NIMH Psychoactive Drug Screening Program (PDSP)
Protocol: (§1) To determine if any off-target receptor-binding effects are present, all the novel ligands were sent to the National Institute of Mental Health (NIMH), Psychoactive Drug Screening Program (PDSP). The ligands were screened over a panel of 47 receptors, ion channels, and transporters to determine any other possible interactions with […]. The hERG-binding was also determined. […] No binding of the test compounds to calcium channels was observed. […] It is necessary to screen the compounds for hERG-binding during the early process of drug discovery. The unintentional binding of many drugs to hERG can cause blockade of hERG K+ channels in the heart, which can cause many side effects including cardiac arrhythmias and sudden death. […] All of the α5 imidazodiazepines were tested for hERG-binding.
(§2) The NIMH PDSP assay protocol book [https://kidbdev.med.unc.edu/databases/PDSP%20Protocols%20II%202013-03-28.pdf accessed on 23 April 2023]. describes the protocols for primary and secondary radio-ligand binding assays. These assays were carried out in a final volume of 125 µL per well in the appropriate binding buffer.
(§3) The binding of a ligand to a receptor, ion channel, or transporter was determined in the […] of 10 µM of the appropriate reference compound. […] Plates were incubated in the dark for 90 min at rt, and the reactions were stopped by vacuum filtration onto 0.3% polyethyleneimine (PEI) soaked 96-well filter mats using a 96-well Filtermateharvester. This was followed by three washes with cold PBS buffer. Radioactivity was then counted on a Microbeta counter. Nonlinear regression was used to analyze the data with N = 6 replicates.

D3 = target: T2, D3 (Homo sapiens, UniProt P35462); assay: PDSP primary binding D3; conditions: 1.5 h; primary binding, 10,000 nM; last figure of the line = mean of the 4 before it; read-out: D3, PDSP raw data, mean
T2 construct: purchased NIMH Psychoactive Drug Screening Program (PDSP)
T2 sequence (P35462 whole entry): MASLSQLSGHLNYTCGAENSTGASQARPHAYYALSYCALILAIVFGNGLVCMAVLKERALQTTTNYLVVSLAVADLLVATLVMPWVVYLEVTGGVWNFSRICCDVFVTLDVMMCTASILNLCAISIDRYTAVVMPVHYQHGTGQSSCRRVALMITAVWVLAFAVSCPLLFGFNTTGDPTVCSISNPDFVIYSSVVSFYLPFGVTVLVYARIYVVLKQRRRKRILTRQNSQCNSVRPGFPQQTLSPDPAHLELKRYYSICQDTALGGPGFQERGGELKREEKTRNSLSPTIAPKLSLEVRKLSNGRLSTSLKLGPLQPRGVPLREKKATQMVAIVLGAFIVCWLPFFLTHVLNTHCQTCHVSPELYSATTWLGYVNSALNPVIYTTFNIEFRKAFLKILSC
Protocol: as §1, §2, §3

V1A = target: T3, V1A (Homo sapiens, UniProt P37288); assay: PDSP primary binding V1A; conditions: primary binding, 10,000 nM; last figure of the line = mean of the 4 before it; read-out: V1A, PDSP raw data, mean
T3 construct: purchased NIMH Psychoactive Drug Screening Program (PDSP)
T3 sequence (P37288 whole entry): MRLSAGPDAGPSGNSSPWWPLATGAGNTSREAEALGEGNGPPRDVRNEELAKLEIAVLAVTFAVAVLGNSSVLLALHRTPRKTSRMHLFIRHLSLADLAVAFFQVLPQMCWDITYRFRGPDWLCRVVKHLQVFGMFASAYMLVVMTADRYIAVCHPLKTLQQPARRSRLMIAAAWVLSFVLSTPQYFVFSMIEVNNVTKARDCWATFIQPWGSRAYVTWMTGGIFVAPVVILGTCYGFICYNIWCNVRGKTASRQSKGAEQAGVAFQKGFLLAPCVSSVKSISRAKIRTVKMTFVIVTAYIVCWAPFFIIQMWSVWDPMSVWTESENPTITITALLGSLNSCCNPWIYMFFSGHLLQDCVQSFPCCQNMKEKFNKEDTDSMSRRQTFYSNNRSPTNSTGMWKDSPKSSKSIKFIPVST
Protocol: as §1, §2, §3

V1B = target: T4, V1B (Homo sapiens, UniProt P47901); assay: PDSP primary binding V1B; conditions: primary binding, 10,000 nM; last figure of the line = mean of the 4 before it; read-out: V1B, PDSP raw data, mean
T4 construct: purchased NIMH Psychoactive Drug Screening Program (PDSP)
T4 sequence (P47901 1-424): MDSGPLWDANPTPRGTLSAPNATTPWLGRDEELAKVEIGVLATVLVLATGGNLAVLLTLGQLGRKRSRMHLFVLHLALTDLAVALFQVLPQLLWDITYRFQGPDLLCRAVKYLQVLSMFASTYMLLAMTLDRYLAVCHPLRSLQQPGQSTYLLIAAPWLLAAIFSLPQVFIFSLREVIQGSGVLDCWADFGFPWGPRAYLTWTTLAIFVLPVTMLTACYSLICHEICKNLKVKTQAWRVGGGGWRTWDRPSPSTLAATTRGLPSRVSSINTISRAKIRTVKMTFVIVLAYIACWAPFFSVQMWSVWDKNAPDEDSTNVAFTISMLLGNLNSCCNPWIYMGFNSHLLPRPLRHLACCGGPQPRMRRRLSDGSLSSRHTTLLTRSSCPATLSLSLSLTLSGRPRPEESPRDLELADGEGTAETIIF
Protocol: as §1, §2, §3

5-HT1A = target: T5, 5-HT1A (Homo sapiens, UniProt P08908); assay: PDSP primary binding 5-HT1A; conditions: 1.5 h; primary binding, 10,000 nM; last figure of the line = mean of the 4 before it; read-out: 5-HT1A, PDSP raw data, mean
T5 construct: purchased NIMH Psychoactive Drug Screening Program (PDSP)
T5 sequence (P08908 1-422): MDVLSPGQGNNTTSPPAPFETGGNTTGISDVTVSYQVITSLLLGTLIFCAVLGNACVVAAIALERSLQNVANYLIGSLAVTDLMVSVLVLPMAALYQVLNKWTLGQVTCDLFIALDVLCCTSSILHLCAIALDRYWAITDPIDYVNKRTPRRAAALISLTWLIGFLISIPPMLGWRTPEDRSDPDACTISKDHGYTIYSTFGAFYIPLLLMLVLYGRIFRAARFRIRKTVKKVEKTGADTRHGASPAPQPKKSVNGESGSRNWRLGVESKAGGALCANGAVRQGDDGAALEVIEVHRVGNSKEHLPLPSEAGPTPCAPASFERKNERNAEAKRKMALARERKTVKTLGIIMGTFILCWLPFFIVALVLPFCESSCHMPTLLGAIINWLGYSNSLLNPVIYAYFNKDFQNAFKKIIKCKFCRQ
Protocol: as §1, §2, §3

Sigma 2 = assay: PDSP primary binding Sigma 2; conditions: primary binding, 10,000 nM; last figure of the line = mean of the 4 before it
Protocol: as §1, §2, §3

NR2B = assay: PDSP primary binding NR2B; conditions: primary binding, 10,000 nM; last figure of the line = mean of the 4 before it
Protocol: as §1, §2, §3

Alpha4Beta2 (Rat Brain) = target: T6, Alpha4Beta2 (Rat Brain) (Rattus norvegicus, UniProt P09483+P12390); assay: PDSP primary binding Alpha4Beta2 (Rat Brain); conditions: primary binding, 10,000 nM; last figure of the line = mean of the 4 before it; read-out: Alpha4Beta2 (Rat Brain), PDSP raw data, mean
T6 construct: purchased NIMH Psychoactive Drug Screening Program (PDSP)
T6 sequence (P09483 31-630): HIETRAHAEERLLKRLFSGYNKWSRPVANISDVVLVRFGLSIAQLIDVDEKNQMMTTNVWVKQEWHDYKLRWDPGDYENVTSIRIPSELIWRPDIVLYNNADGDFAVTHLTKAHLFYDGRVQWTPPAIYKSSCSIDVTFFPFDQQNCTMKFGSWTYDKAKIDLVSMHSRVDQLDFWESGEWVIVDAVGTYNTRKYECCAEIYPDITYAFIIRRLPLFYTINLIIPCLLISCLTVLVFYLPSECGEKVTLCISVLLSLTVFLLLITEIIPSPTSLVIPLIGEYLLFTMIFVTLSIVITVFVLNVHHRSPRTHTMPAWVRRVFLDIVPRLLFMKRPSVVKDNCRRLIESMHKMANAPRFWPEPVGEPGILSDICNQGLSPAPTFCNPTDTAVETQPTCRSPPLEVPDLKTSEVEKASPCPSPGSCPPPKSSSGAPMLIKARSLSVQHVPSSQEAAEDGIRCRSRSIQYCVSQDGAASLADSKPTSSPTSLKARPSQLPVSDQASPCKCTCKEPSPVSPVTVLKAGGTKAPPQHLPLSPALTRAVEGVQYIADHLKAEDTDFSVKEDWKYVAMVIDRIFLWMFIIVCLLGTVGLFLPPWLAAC
T6 sequence (P12390 25-500): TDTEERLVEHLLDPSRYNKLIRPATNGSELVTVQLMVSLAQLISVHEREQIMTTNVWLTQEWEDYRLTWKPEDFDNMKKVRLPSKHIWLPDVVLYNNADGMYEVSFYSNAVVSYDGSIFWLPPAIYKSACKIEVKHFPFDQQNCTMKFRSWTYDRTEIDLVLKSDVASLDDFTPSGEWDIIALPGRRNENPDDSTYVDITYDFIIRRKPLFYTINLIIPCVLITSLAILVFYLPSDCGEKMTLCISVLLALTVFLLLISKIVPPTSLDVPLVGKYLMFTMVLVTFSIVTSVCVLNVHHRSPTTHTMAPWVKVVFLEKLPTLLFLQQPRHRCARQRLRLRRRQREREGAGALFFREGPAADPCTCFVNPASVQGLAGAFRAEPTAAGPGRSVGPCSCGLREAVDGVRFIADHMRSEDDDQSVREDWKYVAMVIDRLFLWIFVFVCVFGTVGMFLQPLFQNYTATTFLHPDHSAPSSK
Protocol: as §1, §2, §3

Alpha4Beta4 = target: T7, Alpha4Beta4 (Rattus norvegicus, UniProt P09483+P12392); assay: PDSP primary binding Alpha4Beta4; conditions: primary binding, 10,000 nM; last figure of the line = mean of the 4 before it; read-out: Alpha4Beta4, PDSP raw data, mean
T7 construct: purchased NIMH Psychoactive Drug Screening Program (PDSP)
T7 sequence (P09483 31-630): as the sequence (P09483 31-630) above
T7 sequence (P12392 21-495): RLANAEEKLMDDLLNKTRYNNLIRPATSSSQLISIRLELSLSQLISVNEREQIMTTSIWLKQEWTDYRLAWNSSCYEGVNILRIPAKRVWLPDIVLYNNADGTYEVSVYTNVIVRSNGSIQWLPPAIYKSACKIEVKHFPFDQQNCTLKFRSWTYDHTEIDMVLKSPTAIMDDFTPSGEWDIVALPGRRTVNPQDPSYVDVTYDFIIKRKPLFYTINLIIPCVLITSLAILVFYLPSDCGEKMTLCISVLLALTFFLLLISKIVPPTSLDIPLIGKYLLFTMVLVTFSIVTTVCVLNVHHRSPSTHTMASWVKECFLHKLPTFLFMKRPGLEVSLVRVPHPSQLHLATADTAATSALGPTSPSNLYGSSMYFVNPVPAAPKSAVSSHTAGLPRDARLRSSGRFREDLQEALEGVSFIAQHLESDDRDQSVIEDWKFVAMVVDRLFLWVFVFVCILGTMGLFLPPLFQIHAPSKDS
Protocol: as §1, §2, §3

M2 = target: T8, M2 (Homo sapiens, UniProt P08172); assay: PDSP primary binding M2; conditions: primary binding, 10,000 nM; last figure of the line = mean of the 4 before it; read-out: M2, PDSP raw data, mean
T8 construct: purchased NIMH Psychoactive Drug Screening Program (PDSP)
T8 sequence (P08172 1-466): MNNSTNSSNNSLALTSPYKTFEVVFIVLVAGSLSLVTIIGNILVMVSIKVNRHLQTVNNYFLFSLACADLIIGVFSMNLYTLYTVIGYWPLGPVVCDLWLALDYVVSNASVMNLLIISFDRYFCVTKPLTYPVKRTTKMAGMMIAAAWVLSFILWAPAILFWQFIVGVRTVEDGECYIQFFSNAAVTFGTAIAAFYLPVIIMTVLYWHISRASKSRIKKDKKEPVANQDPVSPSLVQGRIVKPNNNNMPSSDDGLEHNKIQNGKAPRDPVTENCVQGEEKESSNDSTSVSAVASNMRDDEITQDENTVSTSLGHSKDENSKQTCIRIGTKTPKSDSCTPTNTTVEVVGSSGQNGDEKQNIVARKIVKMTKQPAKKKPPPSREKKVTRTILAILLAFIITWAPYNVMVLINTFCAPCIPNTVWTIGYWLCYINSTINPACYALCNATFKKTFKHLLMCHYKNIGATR
Protocol: as §1, §2, §3

NMDA = assay: PDSP primary binding NMDA; conditions: primary binding, 10,000 nM; last figure of the line = mean of the 4 before it
Protocol: as §1, §2, §3

T1 sequence (Q12809 whole entry): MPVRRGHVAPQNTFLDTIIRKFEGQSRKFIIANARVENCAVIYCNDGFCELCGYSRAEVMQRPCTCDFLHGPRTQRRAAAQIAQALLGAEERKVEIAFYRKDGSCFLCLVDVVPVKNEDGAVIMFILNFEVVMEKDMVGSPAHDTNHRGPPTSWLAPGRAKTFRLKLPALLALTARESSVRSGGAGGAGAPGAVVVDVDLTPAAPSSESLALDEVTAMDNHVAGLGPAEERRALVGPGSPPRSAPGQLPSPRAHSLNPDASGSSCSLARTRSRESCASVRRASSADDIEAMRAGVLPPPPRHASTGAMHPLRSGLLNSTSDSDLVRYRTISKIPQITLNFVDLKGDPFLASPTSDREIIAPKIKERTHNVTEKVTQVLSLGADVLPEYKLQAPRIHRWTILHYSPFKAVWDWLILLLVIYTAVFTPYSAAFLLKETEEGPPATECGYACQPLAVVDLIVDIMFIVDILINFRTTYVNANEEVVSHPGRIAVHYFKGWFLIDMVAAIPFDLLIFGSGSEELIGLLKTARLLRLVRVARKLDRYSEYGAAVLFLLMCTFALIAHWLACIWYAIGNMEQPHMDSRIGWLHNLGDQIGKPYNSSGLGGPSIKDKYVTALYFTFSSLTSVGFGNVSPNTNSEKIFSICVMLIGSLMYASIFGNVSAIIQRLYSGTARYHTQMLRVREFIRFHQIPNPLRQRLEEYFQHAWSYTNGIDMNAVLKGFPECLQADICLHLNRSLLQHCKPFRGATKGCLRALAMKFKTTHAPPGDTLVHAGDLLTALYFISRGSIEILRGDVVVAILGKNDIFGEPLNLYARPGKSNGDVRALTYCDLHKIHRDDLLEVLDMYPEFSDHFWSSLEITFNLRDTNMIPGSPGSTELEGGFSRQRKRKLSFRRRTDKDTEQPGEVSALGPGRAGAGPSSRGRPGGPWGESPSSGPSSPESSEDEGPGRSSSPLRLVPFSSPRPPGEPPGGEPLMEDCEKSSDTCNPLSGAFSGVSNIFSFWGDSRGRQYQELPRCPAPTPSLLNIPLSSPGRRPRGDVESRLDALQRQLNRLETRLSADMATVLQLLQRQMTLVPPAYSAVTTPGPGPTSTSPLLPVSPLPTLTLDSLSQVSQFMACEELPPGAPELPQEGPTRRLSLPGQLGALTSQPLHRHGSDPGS

SMILES | HERG, PDSP raw data, mean (hERG channels) | inhibition at 10 µM (D3) | inhibition at 10 µM (V1A) | inhibition at 10 µM (V1B) | inhibition at 10 µM (5-HT1A) | Sigma 2, PDSP raw data, mean (Sigma 2) | NR2B, PDSP raw data, mean (NR2B) | inhibition at 10 µM (Alpha4Beta2 (Rat Brain)) | inhibition at 10 µM (Alpha4Beta4) | inhibition at 10 µM (M2) | NMDA, PDSP raw data, mean (NMDA)
C[C@H]1N=C(c2ccccc2F)c2cc(-c3ccccc3)ccc2-n2cnc(C(=O)N(C)C)c21 [Compound 5, (R)-6-(2′-Fluorophenyl)-N,N,4-trimethyl-8-phenyl-4H-benzo[f]imidazo[1,5-a][1,4]diazepine-3-carboxamide] | -0.48% | -3.57% | 15.6% | 1.4% | 2.37% | 43.63% | 3.79% | -5.7% | 1.99% | 15.4% | 43.17%
C#Cc1ccc2c(c1)C(c1ccccc1Cl)=N[C@H](C)c1c(C(=O)NC)ncn1-2 [Compound 21, (R)-6-(2′-Chlorophenyl)-8-ethynyl-N,4-dimethyl-4H-benzo[f]imidazo[1,5-a][1,4]diazepine-3-carboxamide] | -5.73% | 6.19% | 35.1% | 45.8% | 4.88% | 1.04% | -8.82% | 0.7% | 14.4% | 0.22% | 77.15%
C#Cc1ccc2c(c1)C(c1ccccn1)=N[C@@H](C)c1c(C(=O)NC)ncn1-2 [Compound 23, (S)-8-Ethynyl-N,4-dimethyl-6-(pyridin-2′-yl)-4H-benzo[f]imidazo[1,5-a][1,4]diazepine-3-carboxamide] | -4.24% | 7.31% | 25.4% | -4.18% | 2.23% | 8.85% | -22.69% | 2.71% | 4.42% | -6.16% | 89.17%
C#Cc1ccc2c(c1)C(c1ccccc1Cl)=N[C@H](C)c1c(C(=O)N(C)CC)ncn1-2 [Compound 29] | -1.55% | 13% | 8.93% | 11% | -2.7% | 13.69% | -14.08% | 0.03% | -3.3% | 3.03% | 98.03%
C#Cc1ccc2c(c1)C(c1ccccn1)=N[C@@H](C)c1c(C(=O)N(C)C)ncn1-2 [Compound 31, (S)-8-Ethynyl-N,N,4-trimethyl-6-(pyridin-2′-yl)-4H-benzo[f]imidazo[1,5-a][1,4]diazepine-3-carboxamide] | 0.95% | 1.06% | 3.6% | 24.3% | -0.48% | -12.63% | -10.18% | 2.48% | 6.85% | 3.03% | 17.3%
C#Cc1ccc2c(c1)C(c1ccccc1F)=N[C@H](C)c1c(C(=S)N(C)C)ncn1-2 [Compound 33, (R)-8-Ethynyl-6-(2′-fluorophenyl)-N,N,4-trimethyl-4H-benzo[f]imidazo[1,5-a][1,4]diazepine-3-carbothioamide] | -0.48% | -3.57% | 15.6% | 1.4% | 2.37% | 43.63% | 3.79% | -5.7% | 1.99% | 15.4% | 43.17%
CCc1noc(-c2ncn3c2[C@@H](C)N=C(c2ccccc2F)c2cc(-c4ccccc4)ccc2-3)n1 [Compound 35, (R)-3-Ethyl-5-(6-(2′-fluorophenyl)-4-methyl-8-phenyl-4H-benzo[f]imidazo[1,5-a][1,4]diazepin-3-yl)-1,2,4-oxadiazole] | 37.34% | 16.2% | 3.9% | 21% | 28.9% | 85.36% | 24.81% | -11.6% | 17.9% | -7.95% | 37.76%
CCc1noc(-c2ncn3c2[C@@H](C)N=C(c2ccccc2F)c2cc(Cl)ccc2-3)n1 [Compound 36, (R)-5-(8-Chloro-6-(2′-fluorophenyl)-4-methyl-4H-benzo[f]imidazo[1,5-a][1,4]diazepin-3-yl)-3-ethyl-1,2,4-oxadiazole] | -1.15% | 4.97% | 27.6% | 22.9% | 3% | 81.41% | 14.42% | 3.25% | 10.2% | -3.62% | 55.6%
CC(C)c1noc(-c2ncn3c2[C@@H](C)N=C(c2ccccc2F)c2cc(Cl)ccc2-3)n1 [Compound 37, (R)-5-(8-Chloro-6-(2′-fluorophenyl)-4-methyl-4H-benzo[f]imidazo[1,5-a][1,4]diazepin-3-yl)-3-isopropyl-1,2,4-oxadiazole] | 20.73% | -0.7% | -10.1% | -15.4% | -6% | 76.17% | 34.46% | -0.61% | 12.9% | -19.3% | 54.13%
